Marks after values point to notes of the source that are not given here.
Key:
Type in all cases: physicochemical
[1] = Thermal stability evaluation (TG/DTA weight change)
Description: Thermal stability was measured and evaluated by using a thermogravimetry/differential thermal analyzer TG/DTA7200 (SII NanoTechnology Inc.) under the following conditions. • Rate of temperature increase: 10° C./min • Range of temperature increase: 25 to 300° C. • Atmosphere: nitrogen 200 mL/min <Hygroscopicity or Deliquescency Evaluation>
Thermal stability was measured and evaluated by using a thermogravimetry/differential thermal analyzer TG/DTA7200 (SII NanoTechnology Inc.) under the following conditions • Rate of temperature increase: 10° C./min • Range of temperature increase: 30 to 300° C. • Atmosphere: nitrogen 200 mL/min • or • using a TGA/DSC1 thermogravimetric analyzer (manufactured by Mettler Toledo, STARe system) under the following conditions. • Rate of temperature increase: 10° C./min • Range of temperature increase: 25 to 300° C. • Atmosphere: nitrogen 50 mL/min <Hygroscopicity or Deliquescency Evaluation>

[2] = Hygroscopicity or deliquescency evaluation (moisture adsorption, DVS)
Description: Hygroscopicity or deliquescency was evaluated as follows by using a moisture adsorption measurement device DVS-1 or DVS-intrinsic (Surface Measurement Systems Limited). Each sample (about 5 mg) was placed into an aluminum plate of which the tare weight had been corrected in advance, and the plate was hung on the precision balance of said device to precisely measure the weight at the start of measurement. The humidity was changed in a stepwise manner in a chamber at 25° C., the weight change was recorded with time, and the equilibrium weight was calculated at each humidity. On the basis of the weight at a dried condition (0% RH), the weight change rate and hydration number at each humidity were calculated.
Hygroscopicity or deliquescency was evaluated as follows by using a moisture adsorption measurement device DVS-1 or DVS-intrinsic (Surface Measurement Systems Limited). Each sample was placed into a cell of which the tare weight had been corrected in advance, and the cell was hung on the precision balance of said device to precisely measure the weight at the start of measurement. The humidity was changed in a stepwise manner, the weight change was recorded with time, and the equilibrium weight was calculated at each humidity. On the basis of the weight of anhydride converted from the amount of water at a dried condition (0% RH) or at the start of measurement observed by an alternative method, the weight change rate at each humidity was calculated.

[3] = Chemical stability evaluation (storage 1 week, liquid chromatography peak area %)
Description: Each about 1 mg of a sample stored at 60° C. (sealed) or 60° C./75% RH (open) for 1 week and an unstored sample (at the start of test) was dissolved into a mixed solution of acetonitrile/water (1:1) (5 mL) to obtain each sample solution. A test was carried out by liquid chromatographic method under the following conditions to measure each peak area (%).
Each peak area (%) was measured by using Waters ACQUITY UPLC under the following conditions. • Detector: Photodiode array (measurement wavelength: 239 nm) • Column: Waters ACQUITY BEH C18 (2.1 mm×100 mm, 1.7 μm) • Column temperature: constant temperature about 40° C. • Mobile phase: Solution A; water/TFA (2000:1), Solution B; Acetonitrile/TFA (2000:1) • Concentration gradient control: B % 2→100% (15 minutes) • Flow rate: 0.5 mL/min • Injection volume: 2 μL
Each sample was stored at 60° C. under a sealed condition and at 60° C. under 75% RH for 1 week, and an increase or decrease of related substance(s) after the storage was calculated by high-performance liquid chromatographic method on the basis of the area percentage of each peak. Also, the condition of each sample after the storage was observed.

Compound: CC(=O)NC1CCC(NC(=O)CN2CCN(c3nncc(-c4ccc(C)cc4)n3)CC2)CC1.CC(=O)NC1CCC(NC(=O)CN2CCN(c3nncc(-c4ccc(C)cc4)n3)CC2)CC1.O.O.O.O.O=S(=O)(O)O.O=S(=O)(O)O.O=S(=O)(O)O.O=S(=O)(O)O.O=S(=O)(O)O (stereo not drawn) [Sulfate Form B crystal]
- Thermal stability TG: weight change ([1]; 25-93° C.): 4.3%
- Thermal stability TG: weight change ([1]; 93-105° C.): 1.6%
- Thermal stability, conclusion in words ([1]; did not show a significant weight change (Succinate Form A: at 25 to 148° C., melting point)): excellent thermal stability
- Hygroscopicity or Deliquescency Weight change at 90% RH ([2]; Table 5, 25° C., 90% RH, relative to weight at 0% RH): 5%*^1
- Hygroscopicity or deliquescency, conclusion in words ([2]; from Table 5): excellent in the reduced hygroscopicity or deliquescency
- Hydration state (hydration stage in moisture adsorption) ([2]; normal temperature, relative humidity of 10 to 95%): hydrate
- Chemical stability 60° C., 75% RH, 1 week (open) ([3]; Table 5, change of related substances (peak area %) vs start): 0.13%
- Chemical stability 60° C. (sealed) ([3]; Table 5, stored 1 week at 60° C. sealed, change of related substances (peak area %) vs start): 0%
- Chemical stability, conclusion in words ([3]; did not show a significant increase of related substances): excellent chemical stability

Source: patent publication US12686666B2, “Triazine compound salt, crystal form thereof, and production method therefor” (TANABE PHARMA CORPORATION, priority 2020, dated 2026)
